For 26 compounds, IC50 results are on record in US20110070190A1 (Roche Palo Alto LLC, priority 2009, published 2011).

The experiment addresses T1, HCV polymerase (NS5B570n-Con1) (Hepatitis C virus genotype 1b, UniProt Q9WMX2).
T1 construct: a 21 amino acid C-terminal deletion of full-length HCV polymerase; made in house; host or cells: E. coli BL21(DE3) pLysS, plasmid pET17b
In words: HCV NS5B RNA polymerase activity (incorporation of radiolabeled nucleotide into acid insoluble RNA). The experiment is classed as biochemical, HCV Con1 strain. Here is the method:
The enzymatic activity of HCV polymerase (NS5B570n-Con1) was measured as the incorporation of radiolabeled nucleotide monophosphates into acid insoluble RNA products. Unincorporated radiolabeled substrate was removed by filtration and scintillant was added to the washed and dried filter plate containing radiolabeled RNA product. The amount of RNA product generated by NS5B570n-Con1 at the end of the reaction was directly proportional to the amount of light emitted by the scintillant.
The HCV polymerase used in the enzymatic activity assay is a 21 amino acid C-terminal deletion of full-length HCV polymerase derived from HCV Con1 strain, genotype 1b (GenBank accession number AJ242654) (NS5B570n-Con1). The NS5B570n-Con1 was sub-cloned downstream to the T7 promoter of the plasmid expression construct pET17b and transformed into E. coli strain BL21(DE3) pLysS for protein expression. A single colony was used to start an innoculum for a 10 L culture in LB media supplemented with 100 μg/mL ampicillin at 37° C. Protein expression was induced by the addition of 0.25 mM isopropyl-β-D-thiogalactopyranoside (IPTG) when the optical density of the culture at […] was 0.8. Induction of protein expression was carried out at 30° C. for 16 h after which the cells were harvested by centrifugation. NS5B570n-Con1 was purified to homogeneity using a three-column purification protocol including subsequent column chromatography on Ni-NTA, SP-Sepharose HP and Superdex 75 resins.
Enzymatic reactions in the presence of cIRES RNA template (see paragraph [00213]) contained 20 nM cIRES RNA, 20 nM NS5B570n-Con1 enzyme, 0.5 μCi of tritiated UTP (Perkin Elmer catalog no. TRK-412; specific activity: 30 to 60 Ci/mmol;), 1 μM each ATP, CTP, and GTP, 40 mM Tris-HCl pH 8.0, 40 mM NaCl, 4 mM DTT (dithiothreitol), 4 mM MgCl2, 5 μl of compound serial diluted in DMSO, and nuclease-free water to a final reaction volume of 50 μl. Enzymatic reactions in the presence of poly A RNA template (see paragraph [00213]) contained 20 nM Poly A:oligo(rU)16 premixed (see section 0004), 20 nM NS5B570n-Con1 enzyme, 1 μCi of tritiated UTP (Perkin Elmer catalog no. TRK-412; specific activity: 30 to 60 Ci/mmol), 40 mM Tris-HCl pH 8.0, 40 mM NaCl, 4 mM DTT (dithiothreitol), 4 mM MgCl2, 5 μl of compound serial diluted in DMSO, and nuclease-free water to a final reaction volume of 50 μl. Reaction mixtures were assembled in 96-well filter plates (cat #MADVN0B, Millipore Co.) and incubated for 2 h at 30° C. Reactions were stopped by addition of 10% final (v/v) trichloroacetic acid and incubated for 40 min at 4° C. Reactions were filtered, washed with 8 reaction volumes of 10% (v/v) trichloroacetic acetic acid, 4 reaction volumes of 70% (v/v) ethanol, air dried, and 25 μl of scintillant (Microscint 20, Perkin-Elmer) was added to each reaction well.
Two RNA templates were used to assay compounds described herein. The cIRES RNA template was 377 nucleotide long and consisted of a partial complementary sequence (36 nucleotides) of the core protein, followed by 341 nucleotide of the complementary sequence of the internal ribosome entry site. The poly A RNA template (GE Amersham catalog number 27-4110) was a homopolymeric RNA pre-annealed to a oligo(rU)16 primer at a molar ratio of 3-to-1 (primer-template).
The amount of light emitted from the scintillant was converted to counts per minute (CPM) on a Topcount® plate reader (Perkin-Elmer, Energy Range: Low, Efficiency Mode: Normal, Count Time: 1 min, Background Subtract: none, Cross talk reduction: Off).
Data was analyzed in Excel® (Microsoft®) and ActivityBase® (Idbs®). The reaction in the absence of enzyme was used to determine the background signal, which was subtracted from the enzymatic reactions. Positive control reactions were performed in the absence of compound, from which the background corrected activity was set as 100% polymerase activity. All data was expressed as a percentage of the positive control. […]

For orientation: IC50 means the point on the concentration scale where inhibition reaches its midpoint. Low readings indicate inhibition by little substance, high ones a need for much substance. Take `CC(CCO)C(=O)Nc1ccc(-c2cc3c(s2)c(=O)ncn3Cc2ccc(Cl)cc2)cc1Cl` (centres unmarked) [Compound I-35]: the midpoint of inhibition, the IC50, lay at 517 nM. The same measure for `O=c1ncn(Cc2ccc(Cl)cc2)c2cc(-c3ccc(NCc4ccccn4)cc3)sc12` [Compound I-23]: 139 nM; for `O=C(Nc1ccc(-c2cc3c(s2)c(=O)ncn3Cc2ccc(Cl)cc2)cc1)c1cnccn1` [Compound I-12, Pyrazine-2-carboxylic acid {4-[1-(4-chloro-benzyl)-4-oxo-1,4-dihydro-thieno[3,2-d]pyrimidin-6-yl]-phenyl}-amide]: 32 nM; for `Cc1ncoc1C(=O)Nc1ccc(-c2cc3c(s2)c(=O)ncn3Cc2ccc(Cl)cc2)cc1` [Compound I-18, 4-Methyl-oxazole-5-carboxylic acid {4-[1-(4-chloro-benzyl)-4-oxo-1,4-dihydro-thieno[3,2-d]pyrimidin-6-yl]-phenyl}-amide]: 77 nM. As for `Cc1ccc(Cn2cnc(=O)c3sc(-c4ccc(CO)cc4)cc32)cc1` [Compound I-53, 6-(4-Hydroxymethyl-phenyl)-1-(4-methyl-benzyl)-1H-thieno[3,2-d]pyrimidin-4-one], the figure is 560 nM. The same measure for `O=C(Nc1ccc(-c2cc3c(s2)c(=O)ncn3Cc2ccc(Cl)cc2)cc1)c1ccc(O)cn1` [Compound I-46, 5-Hydroxy-pyridine-2-carboxylic acid, {4-[1-(4-chloro-benzyl)-4-oxo-1,4-dihydro-thieno[3,2-d]pyrimidin-6-yl]-phenyl}-amide]: 17 nM; for `Cc1ccc(Cn2cnc(=O)c3sc(-c4ccc(-c5cc6ncccn6n5)cc4)cc32)cc1` [Compound I-57, 1-(4-Methyl-benzyl)-6-(4-pyrazolo[1,5-a]pyrimidin-2-yl-phenyl)-1H-thieno[3,2-d]pyrimidin-4-one]: 108 nM; for `Cc1cc(N)n2nc(-c3ccc(-c4cc5c(s4)c(=O)ncn5C[C@H]4CC[C@@H](C)CC4)cc3Cl)cc2n1` [Compound I-4, 6-[4-(7-amino-5-methyl-pyrazolo[1,5-a]pyrimidin-2-yl)-3-chloro-phenyl]-1-(4-methyl-cyclohexylmethyl)-1H-thieno[3,2-d]pyrimidin-4-one]: 10 nM. `O=C(Nc1ccc(-c2cc3c(s2)c(=O)ncn3Cc2ccc(Cl)cc2)cn1)c1ccccn1` [Compound I-41, Pyridine-2-carboxylic acid {5-[1-(4-chloro-benzyl)-4-oxo-1,4-dihydro-thieno[3,2-d]pyrimidin-6-yl]-pyridin-2-yl}-amide]: the IC50 is 62 nM. Compound `O=c1ncn(Cc2ccc(Cl)cc2)c2cc(-c3ccc(OCc4ccc(F)cc4)cc3)sc12` [Compound I-5, 1-(4-chloro-benzyl)-6-[4-(4-fluoro-benzyloxy)-phenyl]-1H-thieno[3,2-d]pyrimidin-4-one] registered a half-maximal inhibitory concentration (IC50) of 13 nM. `Nc1cc(C(=O)Nc2ccc(-c3cc4c(s3)c(=O)ncn4Cc3ccc(Cl)cc3)cc2)ccn1` [Compound I-9, 2-Amino-N-{4-[1-(4-chloro-benzyl)-4-oxo-1,4-dihydro-thieno[3,2-d]pyrimidin-6-yl]-phenyl}-isonicotinamide] came in with an IC50 of 29 nM.

With `Cc1ccc(C(=O)Nc2ccc(-c3cc4c(s3)c(=O)ncn4Cc3ccc(Cl)cc3)cc2)o1` [Compound I-3, 5-Methyl-furan-2-carboxylic acid {4-[1-(4-chloro-benzyl)-4-oxo-1,4-dihydro-thieno[3,2-d]pyrimidin-6-yl]-phenyl}-amide], the concentration for half-maximal inhibition (IC50) stood at 9 nM.

Compound `O=C(Nc1ccc(-c2cc3c(s2)c(=O)ncn3Cc2ccc(Cl)cc2)cc1Cl)c1ccccn1` [Compound I-1, Pyridine-2-carboxylic acid {2-chloro-4-[1-(4-chloro-benzyl)-4-oxo-1,4-dihydro-thieno[3,2-d]pyrimidin-6-yl]-phenyl}-amide] displayed an IC50 of 2 nM.

`Cc1ccc(Cn2cnc(=O)c3sc(-c4ccc(C(=O)O)cc4)cc32)cc1` [Compound I-36] returned an IC50 of 535 nM. The same measure for `O=c1ncn(Cc2ccc(Cl)cc2)c2cc(-c3ccc(NCc4ccccc4)cc3)sc12` [Compound I-49, 6-(4-Benzylamino-phenyl)-1-(4-chloro-benzyl)-1H-thieno[3,2-d]pyrimidin-4-one]: 377 nM; for `O=c1ncn(Cc2ccc(Cl)cc2)c2cc(-c3ccc(N4CCCC4)cc3)sc12` [Compound I-56, 1-(4-Chloro-benzyl)-6-(4-pyrrolidin-1-yl-phenyl)-1H-thieno[3,2-d]pyrimidin-4-one]: 1610 nM. As to `Cc1cc(C(=O)Nc2ccc(-c3cc4c(s3)c(=O)ncn4Cc3ccc(Cl)cc3)cc2)n[nH]1` [Compound I-15, 5-Methyl-1H-pyrazole-3-carboxylic acid {4-[1-(4-chloro-benzyl)-4-oxo-1,4-dihydro-thieno[3,2-d]pyrimidin-6-yl]-phenyl}-amide], the IC50 turned out to be 70 nM. As for `O=c1ncn(Cc2ccc(Cl)cc2)c2cc(-c3ccc(SCc4cccnc4)cc3)sc12` [Compound I-51, 1-(4-Chloro-benzyl)-6-[4-(pyridin-3-ylmethylsulfanyl)-phenyl]-1H-thieno[3,2-d]pyrimidin-4-one], the IC50 is 313 nM. As for `O=C(Nc1ccccc1)c1ccc(-c2cc3c(s2)c(=O)ncn3Cc2ccc(Cl)cc2)cc1` [Compound I-47, 4-[1-(4-Chloro-benzyl)-4-oxo-1,4-dihydro-thieno[3,2-d]pyrimidin-6-yl]-N-phenyl-benzamide], the figure is approximately 40 nM. `Cc1cc(N)n2nc(-c3ccc(-c4cc5c(s4)c(=O)ncn5C[C@H]4CC[C@H](C)CC4)cn3)cc2n1` [Compound I-43, 6-[6-(7-Amino-5-methyl-pyrazolo[1,5-a]pyrimidin-2-yl)-pyridin-3-yl]-1-(4-methyl-cyclohexylmethyl)-1H-thieno[3,2-d]pyrimidin-4-one] yielded an IC50 of 428 nM. Turning to `Cc1cc(N)n2nc(-c3ccc(-c4cc5c(s4)c(=O)ncn5Cc4ccc(Cl)cc4)cn3)cc2n1` [Compound I-42, 6-[6-(7-Amino-5-methyl-pyrazolo[1,5-a]pyrimidin-2-yl)-pyridin-3-yl]-1-(4-chloro-benzyl)-1H-thieno[3,2-d]pyrimidin-4-one], the IC50 worked out at 19 nM.

Regarding `Nc1nccc(-c2ccc(-c3cc4c(s3)c(=O)ncn4Cc3ccc(Cl)cc3)cc2)n1` [Compound I-10, 6-[4-(2-Amino-pyrimidin-4-yl)-phenyl]-1-(4-chloro-benzyl)-1H-thieno[3,2-d]pyrimidin-4-one], the IC50 stood at 29 nM. With `O=C(Nc1ccc(-c2cc3c(s2)c(=O)ncn3Cc2ccc(Cl)cc2)cc1F)c1ccccc1` [Compound I-14, N-{4-[1-(4-Chloro-benzyl)-4-oxo-1,4-dihydro-thieno[3,2-d]pyrimidin-6-yl]-2-fluoro-phenyl}-benzamide], the 50% inhibitory concentration (IC50) was determined as 69 nM. As for `O=c1ncn(Cc2ccc(Cl)cc2)c2cc(-c3ccc(SCc4ccncc4)cc3)sc12` [Compound I-59], the figure is 167 nM; as for `Cc1nnc(-c2ccc(-c3cc4c(s3)c(=O)ncn4Cc3ccc(Cl)cc3)cc2)o1` [Compound I-33, 1-(4-Chloro-benzyl)-6-[4-(5-methyl-[1,3,4]oxadiazol-2-yl)-phenyl]-1H-thieno[3,2d]pyrimidin-4-one], 390 nM. As for `O=C(Nc1ccc(-c2cc3c(s2)c(=O)ncn3Cc2ccc(Cl)cc2)cc1)c1cc(F)ccc1F` [Compound I-7, N-{4-[1-(4-Chloro-benzyl)-4-oxo-1,4-dihydro-thieno[3,2-d]pyrimidin-6-yl]-phenyl}-2,5-difluoro-benzamide], the figure is 21 nM.
